According to patent US20120328721A1, “ALOE VERA SPROUT CONCENTRATE OR EXTRACT HAVING SUPERIOR SKIN CELL GROWTH PROMOTION, ANTIOXIDANT, AND ANTI-ALLERGY EFFECTS” (l, priority 2009, published 2012):

Tested on: type I collagen mRNA
Test: Promotion of collagen synthesis (type I collagen mRNA, RT-PCR)
Format: cell-based
Details: positive control vitamin C 100 μg/ml
Protocol: To evaluate the inhibitory activity against MMP-1 gene expression of Aloe vera shoot concentrate, the change of mRNA expression was measured. RNA was extracted by using Trizol (Invitrogen, USA) according to the guanidium thiocyanate-phenol-chloroform extraction method, and then RT-PCR was carried out by using an All-in-one RT-PCR kit (SuperBio, Korea). PCR (reverse transcription at 50° C. for 30 minutes, inactivation of reverse transcriptase at 96° C. for 3 minutes, 25 cycles of 94° C. for 1 minute, 48° C. for 1 minute and 72° C. for 1 minute) was carried out by using an MMP-1 primer of Table 9, and actin was used as a control group. To evaluate the activity for the promotion of collagen synthesis of Aloe vera shoot concentrate, the expression of collagen mRNA was measured. RT-PCR was carried out with the same method as Experimental Example 9 except that the condition was 30 cycles of 94° C. for 1 minute, 62° C. for 1 minute and 72 ° C. for 1 minute, and collagen primer of Table 11 was used.

O=C1O[C@H]([C@@H](O)CO)C(O)=C1O [vitamin C]
Type I collagen expression amount (%) (column 100 μg/ml): 131.1% | Type I collagen expression amount (%) (column 200 μg/ml): 156.3%
